# Assay results taken from ChEMBL document CHEMBL1158916, “2-O-alpha-D-galactopyranosyl glycerol hexaacetate from Ruellia brittoniana” (J Nat Prod, 1990).
# System: Rattus norvegicus
# Test: Toxicity in anesthetized rat assessed as increase in mean arterial pressure at 100 ug/kg
# Type: organism-based, Artery
# Settings: in vivo, 0.1 mg/kg
smiles,measurement,value
CC(=O)OCC(COC(C)=O)O[C@H]1O[C@H](COC(C)=O)[C@H](OC(C)=O)[C@H](OC(C)=O)[C@H]1OC(C)=O,Activity,Toxic
